Test system: 327498-153-R-J2-PDC complex spheroid growth, % test/control
Assay: Anticancer human tumor 327498-153-R-J2-PDC patient-derived uterine carcinosarcoma cell line growth inhibition [Asc]
Conditions: for IC50: curve of first compound; for viability, T/C: stronger effect = lower value; active = viability on the fitted dose curve at most 10% of control; inactive = the rest
In short: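 Stromal components (HUVEC and hMSC) are co-assembled with the cancer cells into multicellular spheroids. Drugs are then added singly or paired, at concentrations falling by half-log increments from a clinically achievable maximum, capped at 10 microM without known Cmax.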
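Also: spheroids exposed to compound for 7 days after 3 days of growth.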
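For viability, T/C in this document: 100% = DMSO vehicle control wells.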

NC(=O)C(=Cn1cnc(-c2cc(C(F)(F)F)cc(C(F)(F)F)c2)n1)c1cncnc1 + CNC(C)C(=O)NC1CN(S(=O)(=O)c2cccc(S(=O)(=O)N3CCC4CCC(C(=O)NC(c5ccccc5)c5ccccc5)N4C(=O)C(NC(=O)C(C)NC)C3)c2)CCC2CCC(C(=O)NC(c3ccccc3)c3ccccc3)N2C1=O
46 nM: IC50 (second compound 1 µM)
40.1 nM: IC50 (second compound 0.0316 µM)
inactive: viability, T/C (second compound 0.01 µM, first compound 0.000949 µM) 93% | viability, T/C (second compound 0.01 µM, first compound 0.003 µM) 111% | viability, T/C (second compound 0.01 µM, first compound 0.00949 µM) 84.5% | viability, T/C (second compound 0.01 µM, first compound 0.03 µM) 63% | viability, T/C (second compound 0.01 µM, first compound 0.0949 µM) 12.1% | viability, T/C (second compound 0.0316 µM, first compound 0.000949 µM) 90.1% | viability, T/C (second compound 0.0316 µM, first compound 0.003 µM) 91.5% | viability, T/C (second compound 0.0316 µM, first compound 0.00949 µM) 88% | viability, T/C (second compound 0.0316 µM, first compound 0.03 µM) 63.8% | viability, T/C (second compound 0.1 µM, first compound 0.000949 µM) 92.8% | viability, T/C (second compound 0.1 µM, first compound 0.003 µM) 94.4% | viability, T/C (second compound 0.1 µM, first compound 0.00949 µM) 85.8% | viability, T/C (second compound 0.1 µM, first compound 0.03 µM) 65.4% | viability, T/C (second compound 0.1 µM, first compound 0.0949 µM) 9.53% | viability, T/C (second compound 0.316 µM, first compound 0.000949 µM) 91.9% | viability, T/C (second compound 0.316 µM, first compound 0.003 µM) 91.8% | viability, T/C (second compound 0.316 µM, first compound 0.00949 µM) 88.4% | viability, T/C (second compound 0.316 µM, first compound 0.03 µM) 65% | viability, T/C (second compound 1 µM, first compound 0.000949 µM) 102% | viability, T/C (second compound 1 µM, first compound 0.003 µM) 92.1% | viability, T/C (second compound 1 µM, first compound 0.00949 µM) 82.2% | viability, T/C (second compound 1 µM, first compound 0.03 µM) 75.2%
40.9 nM: IC50 (second compound 0.1 µM) | IC50 (second compound 0.316 µM)
active: viability, T/C (second compound 0.01 µM, first compound 0.3 µM) 1.73% | viability, T/C (second compound 0.0316 µM, first compound 0.0949 µM) 9.05% | viability, T/C (second compound 0.0316 µM, first compound 0.3 µM) 1.71% | viability, T/C (second compound 0.1 µM, first compound 0.3 µM) 1.32% | viability, T/C (second compound 0.316 µM, first compound 0.0949 µM) 9.52% | viability, T/C (second compound 0.316 µM, first compound 0.3 µM) 1.32% | viability, T/C (second compound 1 µM, first compound 0.0949 µM) 7.78% | viability, T/C (second compound 1 µM, first compound 0.3 µM) 1.13%
38.6 nM: IC50 (second compound 0.01 µM)

NC1CCC(NC2CC2c2ccccc2)CC1 (stereo not given) + CNC(C)C(=O)NC1CN(S(=O)(=O)c2cccc(S(=O)(=O)N3CCC4CCC(C(=O)NC(c5ccccc5)c5ccccc5)N4C(=O)C(NC(=O)C(C)NC)C3)c2)CCC2CCC(C(=O)NC(c3ccccc3)c3ccccc3)N2C1=O
inactive: viability, T/C (second compound 0.01 µM, first compound 0.000316 µM) 103% | viability, T/C (second compound 0.01 µM, first compound 0.001 µM) 106% | viability, T/C (second compound 0.01 µM, first compound 0.00316 µM) 92.3% | viability, T/C (second compound 0.01 µM, first compound 0.01 µM) 97.6% | viability, T/C (second compound 0.01 µM, first compound 0.0316 µM) 99.4% | viability, T/C (second compound 0.01 µM, first compound 0.1 µM) 96% | viability, T/C (second compound 0.0316 µM, first compound 0.000316 µM) 104% | viability, T/C (second compound 0.0316 µM, first compound 0.001 µM) 104% | viability, T/C (second compound 0.0316 µM, first compound 0.00316 µM) 101% | viability, T/C (second compound 0.0316 µM, first compound 0.01 µM) 100% | viability, T/C (second compound 0.0316 µM, first compound 0.0316 µM) 99.9% | viability, T/C (second compound 0.0316 µM, first compound 0.1 µM) 101% | viability, T/C (second compound 0.1 µM, first compound 0.000316 µM) 100% | viability, T/C (second compound 0.1 µM, first compound 0.001 µM) 101% | viability, T/C (second compound 0.1 µM, first compound 0.00316 µM) 100% | viability, T/C (second compound 0.1 µM, first compound 0.01 µM) 104% | viability, T/C (second compound 0.1 µM, first compound 0.0316 µM) 108% | viability, T/C (second compound 0.1 µM, first compound 0.1 µM) 98.9% | viability, T/C (second compound 0.316 µM, first compound 0.000316 µM) 101% | viability, T/C (second compound 0.316 µM, first compound 0.001 µM) 107% | viability, T/C (second compound 0.316 µM, first compound 0.00316 µM) 106% | viability, T/C (second compound 0.316 µM, first compound 0.01 µM) 98.5% | viability, T/C (second compound 0.316 µM, first compound 0.0316 µM) 96.8% | viability, T/C (second compound 0.316 µM, first compound 0.1 µM) 100% | viability, T/C (second compound 1 µM, first compound 0.000316 µM) 106% | viability, T/C (second compound 1 µM, first compound 0.001 µM) 113% | viability, T/C (second compound 1 µM, first compound 0.00316 µM) 108% | viability, T/C (second compound 1 µM, first compound 0.01 µM) 105% | viability, T/C (second compound 1 µM, first compound 0.0316 µM) 94.7% | viability, T/C (second compound 1 µM, first compound 0.1 µM) 97.8%
> 100 nM: IC50 (second compound 0.01 µM) | IC50 (second compound 0.0316 µM) | IC50 (second compound 0.1 µM) | IC50 (second compound 0.316 µM) | IC50 (second compound 1 µM)

Reference: PubChem BioAssay AID1963424 (Molecular Pharmacology Branch, DTP, NCI, 2024)
